In US12655116B2, “Substituted isophthalic acid diamides” (Bayer Aktiengesellschaft, priority 2020, dated 2026):

Columns and labels:
[1] = test system: PHBPU; assay: Pre-emergence herbicidal action against PHBPU; type: in vivo, Pharbitis purpurea; settings: Ipomoea purpurea, 504 h; for pest or weed control at 320 g/ha: dosage 320 g/ha
Procedure, shortened: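 Herbicidal effect was assessed 3 weeks after treatment by visual comparison with untreated controls, 100% denoting dead plants. Aqueous WP or EC preparations had been applied at 600 to 800 l/ha with 0.2% wetting agent to the soil covering freshly sown seeds.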

[2] = test system: CYPES; assay: Post-emergence herbicidal action against CYPES; type: in vivo, Cyperus esculentus; settings: visual assessment about 3 weeks after treatment, 100% = plants have died, 0% = like control plants
Experimental: Seeds of monocotyledonous and dicotyledonous weed and crop plants are laid out in sandy loam soil in wood-fiber pots, covered with soil and cultivated in a greenhouse under good growth conditions. 2 to 3 weeks after sowing, the test plants are treated at the one-leaf stage. The compounds of the invention, formulated in the form of wettable powders (WP) or as emulsion concentrates (EC), are then sprayed onto the green parts of the plants in the form of an aqueous suspension or emulsion at a water application rate equivalent to 600 to 800 l/ha, with addition of 0.2% wetting agent. After the test plants have been left to stand in the greenhouse under optimal growth conditions for about 3 weeks, the action of the preparations is assessed visually in comparison to untreated controls (herbicidal action in percent (%): 100% activity=the plants have died, 0% activity=like control plants). […] The tables below illustrate, in an illustrative manner, the post-emergence herbicidal action of the compounds of the invention, the herbicidal activity being stated in percent.

[3] = test system: ALOMY; assay: Post-emergence herbicidal action against ALOMY; type: in vivo, Alopecurus myosuroides; settings: Alopecurus myosuroides, 504 h, visual assessment about 3 weeks after treatment vs untreated controls; for pest or weed control at 80 g/ha: dosage 80 g/ha; for pest or weed control at 20 g/ha: dosage 20 g/ha
Procedure, shortened: (§1)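 Herbicidal effect was scored visually in percent after about 3 weeks in the greenhouse. Plants had been raised in sandy loam and treated post-emergence at the one-leaf stage with formulated compound at 600 to 800 l/ha water plus 0.2% wetting agent.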

[4] = test system: AVEFA; assay: Post-emergence herbicidal action against AVEFA; type: in vivo, Avena fatua; settings: Avena fatua, 504 h, visual assessment about 3 weeks after treatment, 100% = plants have died, 0% = like control plants
Procedure, shortened: as §1

[5] = test system: CYPES; assay: Pre-emergence herbicidal action against CYPES; type: in vivo; settings: Cyperus esculentus, 504 h
Text: Seeds of monocotyledonous and dicotyledonous weed plants and crop plants are laid out in sandy loam soil in wood-fiber pots and covered with soil. The compounds of the invention, formulated in the form of wettable powders (WP) or as emulsion concentrates (EC), are then applied to the surface of the covering soil in the form of an aqueous suspension or emulsion at a water application rate equivalent to 600 to 800 l/ha, with addition of 0.2% wetting agent. After the treatment, the pots are placed in a greenhouse and kept under good growth conditions for the trial plants. The damage to the test plants is scored visually after a test period of 3 weeks by comparison with untreated controls (herbicidal activity in percent (%): 100% activity=the plants have died, 0% activity=like control plants). […] The tables below illustrate, in an illustrative manner, the post-emergence herbicidal action of the compounds of the invention, the herbicidal activity being stated in percent.

[6] = test system: ECHCG; assay: Post-emergence herbicidal action against ECHCG; type: in vivo, Echinochloa crus-galli; settings: Echinochloa crus-galli, 504 h; for pest or weed control at 20 g/ha: dosage 20 g/ha; for pest or weed control at 80 g/ha: dosage 80 g/ha
Procedure, shortened: as §1

[7] = test system: MATIN; assay: Post-emergence herbicidal action against MATIN; type: in vivo, Matricaria inodora; settings: Tripleurospermum inodorum, 504 h; for pest or weed control at 5 g/ha: dosage 5 g/ha; for pest or weed control at 20 g/ha: dosage 20 g/ha; for pest or weed control at 80 g/ha: dosage 80 g/ha
Procedure, shortened: as §1

[8] = scored visually after 3 weeks, 100% = plants have died, 0% = like control plants

| Compound | pest or weed control at 320 g/ha [1] [%] | Post-emergence action at 20 g/ha against CYPES in % ([2]; 20 g/ha) [%] | Post-emergence action at 80 g/ha against CYPES in % ([2]; 80 g/ha) [%] | pest or weed control at 80 g/ha [3] [%] | pest or weed control at 20 g/ha [4] [%] | pest or weed control at 80 g/ha [4] [%] | pest or weed control at 80 g/ha [5, 8] [%] | pest or weed control at 320 g/ha [5] [%] | pest or weed control at 20 g/ha [6] [%] | pest or weed control at 80 g/ha [6] [%] | pest or weed control at 20 g/ha ([1]; dosage 20 g/ha) [%] | pest or weed control at 80 g/ha ([1]; dosage 80 g/ha) [%] | pest or weed control at 20 g/ha [3] [%] | pest or weed control at 5 g/ha [7] [%] | pest or weed control at 20 g/ha [7] [%] | pest or weed control at 80 g/ha [7] [%] | pest or weed control at 5 g/ha ([4]; 5 g/ha) [%] | pest or weed control at 20 g/ha ([5]; 20 g/ha, scored visually after 3 weeks, 100% = plants have died, 0% = like control plants) [%] |
| --- | --- | --- | --- | --- | --- | --- | --- | --- | --- | --- | --- | --- | --- | --- | --- | --- | --- | --- |
| Cn1nnnc1NC(=O)c1ccc(C(F)(F)F)c(C(N)=O)c1Cl [Example 1-338] | 80 | 80 | 90 | 100 | 80 | 100 | 90 | 100 | 90 | 90 | – | – | – | – | – | – | – | – |
| CCCn1nnnc1NC(=O)c1ccc(C(F)(F)F)c(C(=O)NC)c1Cl [Example 3-129] | 100 | – | – | 100 | 100 | 100 | 100 | 100 | – | 100 | 80 | 90 | 80 | 100 | 100 | 100 | – | – |
| CCCn1nnnc1NC(=O)c1ccc(C(F)(F)F)c(C(N)=O)c1Cl [Example 3-338] | 100 | – | – | 100 | – | 100 | 90 | 90 | – | 80 | – | – | – | – | – | 80 | – | – |
| CNC(=O)c1c(C(F)(F)F)ccc(C(=O)Nc2nnc(C)o2)c1Cl [Example 6-116] | 80 | – | – | 100 | 100 | 100 | 100 | 100 | 100 | 100 | – | – | 80 | 80 | 90 | 100 | 100 | 100 |
